“Also recorded” adds a separate entry of the source.

One data set deals with mice. Kind of data set: Clinical observations, behavioral tests and rectal temperature after single oral dose. Format: in vivo. Particulars: 30, 100, 300 mg/kg single oral, from 60 min. The procedure: A single oral dose of vehicle or Nepicastat formulation was administered by gavage to each mouse using a rodent intubator. The oral route was selected because it is a proposed clinical route of administration. Dose volumes were calculated on the basis of individual body weights recorded before dosing (body weight data are not tabulated in this report). Food and water were withheld from the mice 2.5 to 3.5 hours before dosing, instead of 1.5 hours as specified in the protocol.
Clinical observations were recorded before dosing. Beginning 60 minutes after dosing, mice in each treatment group were evaluated in groups of up to 3 over an interval of approximately 10 minutes each for clinical observations and protocol-specified behavioral tests.^1 One mouse in the 30-mg/kg group and 1 mouse in the 100-mg/kg group died after dosing and they were removed from the study. Surviving mice were euthanatized and removed from the study at the end of the observation/testing period.
Mice in groups of 6 males each were administered single oral doses of 0 (vehicle), 30, 100, or 300 mg/kg of nepicastat by gavage. Clinical observations and behavioral tests were initiated 60 minutes after administration of the test formulation. At the end of the observation period, all surviving mice were euthanatized and removed from the study.

The subject of data set [1] is mean arterial pressure and heart rate. Kind of data set: Heart rate and mean arterial pressure in restrained SHR with SCH-23390 pretreatment. The class given is in vivo, spontaneous hypertensive rats. An excerpt:
Male, spontaneous hypertensive rats (280-345 g; Charles River Labs, Kingston, N.Y.) were fasted overnight then anesthetized with ether. A femoral artery and femoral vein were cannulated with PE50 tubing for recording of blood pressure and administration of compounds, respectively. Animals were then placed in MAYO restrainers and their feet loosely taped to the restrainer. Heparinized saline (50 units sodium heparin/ml) was used to maintain patency of each cannula throughout the experiment. The following parameters were continuously recorded using Modular Instruments MI^2 BioReport™ software installed on an IBM personal computer: mean arterial pressure (MAP), heart rate (HR), and the change from baseline for each parameter at specified time points in the experiment.
All compounds were dissolved on the day of use. nepicastat was dissolved in deionized water (vehicle) to a free base concentration of 1 mg/ml. Oral dosing volume for nepicastat or vehicle was 10 ml/kg. SCH-23390 was dissolved in saline (vehicle) to a free base concentration of 0.2 mg/ml. […] or saline were administered intravenously as a bolus in a volume of 1.0 ml/kg followed by 0.2 ml flush of isotonic saline.
Following surgical preparation, each animal was allowed a minimum one hour recovery period. Animals were randomly assigned to four treatment groups: vehicle (iv)/vehicle (po); vehicle (iv)/nepicastat (po); SCH-23390 (iv)/vehicle (po); or SCH-23390 (iv)/nepicastat (po). Once animals were stabilized (minimum one hour), baseline blood pressure and heart rate was determined by taking an average of each parameter over a 15 min period of time. Once baseline blood pressure and heart rate were established, animals were dosed intravenously with either SCH-23390 (200 μg/kg) or vehicle (saline, 1 ml/kg). Fifteen minutes later, animals were orally dosed with either nepicastat (10 mg/kg) or vehicle (deionized water, 10 ml/kg).
Recorded parameters were measured 15 min prior to intravenous dosing to establish baseline blood pressure and heart rate. Recorded parameters were then measured at 5, 10, and 15 min following intravenous administration of SCH-23390 or vehicle. Following oral administration of nepicastat or vehicle, recorded parameters were measured at 15, 30, 60, 90, 120, 150, 180, 210, and 240 min.
At the end of the experiment, each animal was anesthetized with halothane and euthanized via decapitation. The cortex, left ventricle (apex), and mesenteric artery were dissected out, weighed, and fixed in 0.4 M perchloric acid. […] Blood pressure and heart rate were analyzed separately. The change from baseline for blood pressure and heart rate were analyzed by an analysis of variance (ANOVA) with effects for treatment, time, and their interaction. […]

For `Cl.NCc1c[nH]c(=S)n1[C@H]1CCc2c(F)cc(F)cc2C1` [nepicastat, (S)-5-Aminomethyl-1-(5,7-difluoro-1,2,3,4-tetrahydronaphth-2-yl)-2,3-dihydro-2-thioxo-1H-imidazole hydrochloride], in the data set on mice, the “clinical or gross behavior changes” value was “No treatment-related clinical or gross behavior changes” and the “rectal body temperature vs vehicle-control” value is recorded as “Lower body temperatures”. In addition, in data set [1] (10 mg/kg oral), the “mean arterial pressure vs vehicle” value is given as “significant decrease (p<0.05) in mean arterial pressure by 30 min post dose”. The “heart rate vs vehicle” value in data set [1] (SCH-23390 200 μg/kg iv, nepicastat 10 mg/kg po) is “did not decrease the heart rate as much as observed in vehicle treated animals”. Further, the “antihypertensive effects of nepicastat after pretreatment with SCH-23390” value in data set [1] (nepicastat 10 mg/kg po, SCH-23390 iv, hydrochloride) was “not attenuated; also recorded: did not significantly attenuate”.

(Values after patent publication US20090054403A1, “Treatment of Post-Traumatic Stress Disorder” (priority 2007, published 2009).)
